According to patent publication US20010041737A1, “Enhancing the toxicity of warfarin in rodents” (priority 1998, published 2001):
Counter-ions that a name gives are not always drawn.

System: warfarin-resistant Norway rats from Chicago, Illinois
Assay: Example II: feeding test of 50 ppm warfarin bait with or without antibiotic
Format: in vivo
Conditions: conclusion in words from the Example II mortality figures

CN(C)[C@@H]1C(O)=C(C(N)=O)C(=O)[C@@]2(O)C(O)=C3C(=O)c4c(O)cccc4[C@@](C)(O)[C@H]3C[C@@H]12 [tetracycline hydrochloride]
Effect of the antibiotic on the toxicity of warfarin: appears to enhance the toxicity of warfarin
